Measurements reported in EP0686635A1, “Pyridylthiazolidinecarboxylic acid amide derivatives, their preparation and their therapeutic uses” (Sankyo Company Limited, priority 1991, dated 1993).
≈ marks a conversion by molar mass, not a printed value. Like-named read-outs stand apart in the source and are kept apart here.

How the values were obtained:
[1] = system: intracutaneous reaction in rats by PAF; assay: Inhibitory effect on intracutaneous reaction in rats by PAF; format: in vivo; conditions: dose 6.4 mg/kg p.o., 60 minutes before intradermal PAF, leaked Evans blue vs control group
Procedure: Male SD rats (5 weeks old) were used as the test animals in groups, each containing 4 animals. Each rat was administered orally with a suspension of the test compound in a 0.5% w/v aqueous tragacanth solution. Sixty minutes after the administration, aqueous physiological saline containing 1.0% w/v Evans blue was injected into the tail vein in an amount of 5 ml/kg of the body weight. Immediately after the injection, 0.05 ml of a solution containing 2 µg/ml of PAF was intradermally injected into the back of the rat to induce a cutanous reaction. After 30 minutes, the rats were sacrificed using carbon dioxide, and the quantity of Evans blue which had leaked into the skin of the back was determined by the method of Harada et al. [J. Pharm. Pharmac., 23, 218 - 219 (1971)]. The inhibition rate of the compound was calculated by comparing the average amount of colourant which had leaked in the group treated with the test compound with that of control group to which no test compound was administered.
The inhibition rate was calculated according to the following equation: Inhibition rate (%) = (1 - B/A) x 100 [formula] where: A: Amount of colourant leaked in the control group B: Amount of colourant leaked in the group to which the test compound was administered.

[2] = system: passive cutaneous anaphylaxis (PCA) in rats; assay: Inhibitory effect on passive cutaneous anaphylaxis (PCA) in rats; format: in vivo; conditions: dose 6.4 mg/kg p.o., 60 minutes before antigen challenge, exuded Evans Blue vs control group
Procedure: According to Mota's method [I. Mota, Immunology, 7, 681 - 699 (1964)], antiserum (256 times the PCA titer) of rat against egg albumin was prepared and diluted four times with physiological saline. Male SD rats (5 weeks old) were used as the test animals in groups, each containing 4 animals. The rats were sensitized by intradermal injection of 0.05 ml of the diluted antiserum solution in the dorsal position. 48 hours after this injection, a suspension of the test compound in an aqueous 0.5% w/v tragacanth solution was orally administered to the rats, which had been fasted for one day, and 60 minutes later they were injected in the caudal vein with 5 ml/kg body weight of physiological saline containing 0.4% w/v egg albumin and 1.0% w/v Evans Blue. 30 minutes after this last injection, the rats were sacrificed with carbon dioxide and the Evans Blue exuded in the dorsal intradermal portion was determined according to Harada's method (Harada et al., J. Pharm. Pharmac., 23, 218 - 219 (1971)].
The results achieved from the test groups which were treated with a test compound were evaluated to determine the inhibitory rate by comparison with the average amount of exuded dye in a control group, which was not given the test compound.
The inhibitory rate was calculated by the following equation. Inhibitory rate (%) = (1-B/A) x 100 [formula] A: amount of exuded dye in the control group B: amount of exuded dye in the test group.

[3] = system: PAF-induced blood platelet aggregation; assay: Inhibitory effect in vitro against PAF-induced blood platelet aggregation; format: cell-based; conditions: Oryctolagus cuniculus; rabbit platelet rich plasma, stimulated with ℓ-C16:0 PAF (10⁻⁸ ∼ 3 x 10⁻⁸ M), 37°C; read-out: Platelet aggregation inhibition, IC₅₀
Procedure: Blood samples were obtained by cardiac puncture from a rabbit and one part by volume of each sample was immediately mixed with 0.1 part of a 3.8% w/v aqueous solution of sodium citrate. A platelet rich plasma (PRP) fraction was prepared by centrifuging the samples at 150 x G for 15 minutes at room temperature, and a platelet poor plasma (PPP) fraction was then prepared by further centrifugation at 1,000 x G for 15 minutes. The platelet count in the PRP was adjusted to 6 x 10⁵ per µℓ by the addition of an appropriate amount of the PPP fraction. According to the method reported by Born et al. [G.V.R. Born et al.: J. Physiol. 62, 67 - 68 (1962)], blood platelet aggregation was determined turbidimetrically in a 6-channel aggregometer (Hemetracer, NKB, Tokyo, Japan). Aliquots of the PRP (272 µℓ) were preincubated with 3 µℓ of a solution of the test compound in dimethyl sulphoxide for 1 minute, and then stimulated with ℓ-C16:0 PAF (at a final concentration of 10⁻⁸ ∼ 3 x 10⁻⁸ M) at 37°C with stirring (100 rpm). Changes in light transmission were monitored for 5 minutes. Vehicle (dimethyl sulphoxide) controls were tested simultaneously, and the inhibitory effects of the test compounds were assessed on the maximal aggregation. The IC₅₀ values were calculated by the method of least squares.

PAF-receptor = target: T1, PAF-receptor (Oryctolagus cuniculus, UniProt G1TEI7); assay: Inhibitory effect on PAF-receptor binding; set-up: species or system rabbit
T1 construct: a precipitated blood platelet sample was obtained; from tissue; host or cells: rabbit blood platelets, membrane fraction from the 0.25 M / 1.5 M sucrose interface
T1 sequence (G1TEI7 1-342): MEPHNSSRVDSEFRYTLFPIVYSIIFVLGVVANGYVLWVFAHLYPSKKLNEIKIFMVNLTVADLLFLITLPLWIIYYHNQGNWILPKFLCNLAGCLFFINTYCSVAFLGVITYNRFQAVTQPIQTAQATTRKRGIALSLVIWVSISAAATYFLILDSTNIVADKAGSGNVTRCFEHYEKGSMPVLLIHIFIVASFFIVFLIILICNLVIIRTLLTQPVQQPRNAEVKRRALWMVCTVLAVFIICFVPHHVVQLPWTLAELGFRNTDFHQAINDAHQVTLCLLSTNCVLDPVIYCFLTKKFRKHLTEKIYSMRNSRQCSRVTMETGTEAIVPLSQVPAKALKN
Excerpt: Blood samples were drawn from the heart of a rabbit. 1 part by volume of each sample was mixed immediately with 1/9 part of a 0.077 M solution of disodium ethylenediaminetetraacetate. After a similar procedure to that described in Experiment 2, a precipitated blood platelet sample was obtained. This blood platelet sample was washed, and, after repeated freesing and thawing to rupture the cells, it was placed on top of two layers consisting of 0.25 M and 1.5 M sucrose solutions. By centrifugation at 63,500 x G, for 2 hours at 4°C, the fraction obtained from the interface between the 0.25 M and 1.5 M sucrose solutions was collected and is regarded as a PAF-receptor membrane fraction. A receptor binding experiment was then conducted according to a method very similar to that reported by Hwang et al. [San-Bao Hwang et al.: J. Biol. Chem. 260, 15639 - 15645 (1985)]. The specific binding of ³H-PAF was measured using a Wattman GF/C filter. A test compound was dissolved in dimethyl sulphoxide and diluted 100 fold with a buffer solution containing 0.5% bovine serum albumin. Nine parts by volume of the solution, for a receptor binding experiment, was mixed with one part of the test compound solution prepared above. The percent inhibition of the specific binding was plotted against the log of the concentration of the test compound, and the 50% inhibitory concentration (IC₅₀) was calculated from the linear line connecting all the plotted points.

[4] = rabbit platelet PAF-receptor membrane fraction, specific binding of ³H-PAF, read-out: Receptor binding inhibition, IC₅₀ (g/ml) (converted)

Row | Compound | Inhibitory rate (%) [1] | Inhibitory rate (%) [2] | IC50 [3] | IC50 (PAF-receptor; [4]) | IC50 (PAF-receptor)
1 | CN(CCOC(c1ccccc1)c1ccccc1)CCN(C)C(=O)[C@@H]1CSC(c2cccnc2)N1 (stereo partly drawn) [Example 1, (4R)-N-Methyl-N-{2-[N-(2-diphenylmethoxyethyl)-N-methylamino]ethyl}-2-(3-pyridyl)thiazolidine-4-carboxamide] | 57% | 33% | 0.063 µg/mL (≈ 0.128 µM) | – | –
2 | O=C([C@@H]1CSC(c2cccnc2)N1)N1CCN(CCOC(c2ccccc2)c2ccc(Cl)cc2)CC1 (some centres unmarked) [Example 4] | 64% | – | 0.085 µg/mL (≈ 0.162 µM) | 51.6 nM | –
3 | O=C([C@@H]1CSC(c2cccnc2)N1)N1CCN(CCN2CCC(=C(c3ccccc3)c3ccccc3)CC2)CC1 (stereo partly drawn) [Example 5, (4R)-1-{2-[4-(Diphenylmethylene)-1-piperidinyl]ethyl}-4-[2-(3-pyridyl)thiazolidin-4-ylcarbonyl]piperazine] | – | 42% | – | – | –
4 | Cc1ccc(C(OCCN2CCN(C(=O)[C@@H]3CSC(c4cccnc4)N3)CC2)c2ccccc2)cc1 (some centres unmarked) [Example 6] | – | 45% | 0.055 µg/mL (≈ 0.109 µM) | 41.8 nM | –
5 | O=C([C@@H]1CSC(c2cccnc2)N1)N1CCN(CCOC(c2ccccc2)c2ccccc2)CC1 (stereo partly drawn) [Example 7, (4R)-1-(2-Diphenylmethoxyethyl)-4-[2-(3-pyridyl)thiazolidin-4-ylcarbonyl]piperazine] | 70% | – | 0.095 µg/mL (≈ 0.194 µM) | – | 51.2 nM
6 | O=C([C@@H]1CSC(c2cccnc2)N1)N1CCN(CCOC(c2ccccc2)C2CCCCC2)CC1 (stereo partly drawn) [Example 11, (4R)-1-[2-(α-Cyclohexylbenzyloxy)ethyl]-4-[2-(3-pyridyl)thiazolidin-4-ylcarbonyl]piperazine] | – | – | 0.072 µg/mL (≈ 0.146 µM) | 445 nM | –
7 | O=C([C@@H]1CSC(c2cccnc2)N1)N1CCCN(CCOC(c2ccc(F)cc2)c2ccc(F)cc2)CC1 (stereo partly drawn) [Example 12, (4R)-1-[2-Bis(4-fluorophenyl)methoxyethyl]-4-[2-(3-pyridyl)thiazolidin-4-ylcarbonyl]homopiperazine] | – | – | 0.19 µg/mL (≈ 0.353 µM) | – | 390 nM
8 | O=C([C@@H]1CSC(c2cccnc2)N1)N1CCCN(CCOC(c2ccccc2)c2ccccc2)CC1 (stereo partly drawn) [Example 13, (4R)-1-(2-Diphenylmethoxyethyl)-4-[2-(3-pyridyl)thiazolidin-4-ylcarbonyl]homopiperazine] | – | – | 0.22 µg/mL (≈ 0.438 µM) | – | 279 nM
9 | O=C([C@@H]1CSC(c2cccnc2)N1)N1CCN(CCOC(c2ccc(F)cc2)c2ccc(F)cc2)CC1 (stereo partly drawn) [Example 14, (4R)-1-[2-Bis(4-fluorophenyl)methoxyethyl]-4-[2-(3-pyridyl)thiazolidin-4-ylcarbonyl]piperazine] | 47% | – | 0.14 µg/mL (≈ 0.267 µM) | – | 19.1 nM
10 | O=C(NCCN1CCN2c3ccccc3Cc3ccccc3[C@@H]2C1)[C@@H]1CSC(c2cccnc2)N1 (stereo partly drawn) [Example 16, (4R)-N-{2-[(14bR)-1,2,3,4,10,14b-Hexahydrodibenzo[c,f]pyrazino[1,2-a]azepin-2-yl]ethyl}-2-(3-pyridyl)thiazolidine-4-carboxamide] | 62% | 62% | – | – | –
11 | O=C(NCCN1CCN2c3ccccc3Cc3ccccc3[C@H]2C1)[C@@H]1CSC(c2cccnc2)N1 (stereo partly drawn) [Example 17, (4R)-N-{2-[(14bS)-1,2,3,4,10,14b-Hexahydrodibenzo[c,f]pyrazino[1,2-a]azepin-2-yl]ethyl}-2-(3-pyridyl)thiazolidine-4-carboxamide] | – | 73% | – | – | –
12 | O=C(NCCN1CCN2c3ccc(F)cc3Cc3ccccc3[C@H]2C1)[C@@H]1CSC(c2cccnc2)N1 (stereo partly drawn) [Example 25, (4R)-N-{2-[(14bS)-8-Fluoro-1,2,3,4,10,14b-hexahydrodibenzo[c,f]pyrazino[1,2-a]azepin-2-yl]ethyl}-2-(3-pyridyl)thiazolidine-4-carboxamide] | – | 55% | – | – | –
